Experimental data taken from patent US20250108048A1, “STING AGONIST COMPOUNDS AND CONJUGATES” (SUTRO BIOPHARMA, INC., priority 2023, published 2025).

Legend:
hSTING-R232 = target: T1, hSTING-R232 (Homo sapiens, UniProt Q86WV6, H232R); assay: THP1-Dual KI-hSTING-R232 reporter assay (IRF pathway, secreted Lucia luciferase); assay type: cell-based; conditions: THP1-Dual KI-hSTING-R232 cells, 24 hours; read-out: Reporter assay EC50 (nM) THP-1-R232
T1 construct: host or cells: THP1-Dual KI-hSTING-R232 (from THP1-Dual KO-STING)
Method: (§1) The activities of the STING agonists to activate human or mouse STING pathways were evaluated in THP-1-Dual™, THP1-Dual™ KI-hSTING-R232, THP1-Dual™ KI-hSTING-H232 Cells and THP1-Dual™ KI-mSTING Cells. THP-1-Dual™ cells contains hSTING-HAQ haplotype and can be used to evaluate the activity of STING agonists by monitoring the activation of NF-κB pathway and the […] (IFN regulatory factor) pathways. THP1-Dual™ KO-STING cells were generated from THP1-Dual™ cells by stable knockout of the endogenous HAQ STING gene. THP1-Dual™ KI-hSTING-R232 cells, THP1-Dual™ KI-hSTING-H232 cells and THP1-Dual™ KI-mSTING cells were generated by transfecting THP1-Dual™ KO-STING cells with hSTING-R232 or hSTING-H232 or mSTING. Stimulating these reporter cells with a STING agonist activates TRF pathway and induces the production of a secreted Lucia luciferase in the cell culture medium, which can be determined using QUANTI-Luc™ reagent.
(§2) THP-1-Dual™, THP1-Dual™ KI-hSTING-R232, THP1-Dual™ KI-hSTING-H232 and THP1-Dual™ KI-mSTING reporter cells were purchased from Invivogen and maintained in manufacture recommended culture medium with required supplemental antibiotics. On the day of assay, the cells were harvested with Accutase and counted by the Vi-CELL Cell Viability Analyzers. Cells were resuspended in HEK blue detection medium and a total of 10000 cells were seeded in each well of a 384-well flat bottom plate. […] After incubation at 37° C. in a CO2 incubator for 24 hours, 20 μl of cell culture medium per well was transferred into a 384-well white (opaque) plate. 50 μl of QUANTI-Luc™ assay solution was then added to each well and the plate was immediately transferred to an ENVISION® plate reader to measure luminescence (Perkin-Elmer). Relative luminescence readings were converted to fold change of signal using untreated cells as controls. Data was fitted with non-linear regression analysis, using log (agonist) vs. response, variable slope, 4-parameter fit equation using GraphPad Prism. Data was expressed as fold change in signal vs. dose of STING agonist in nM with error bars indicating the Standard Deviation (SD) of the quadruplicates. There result was reported in Table 2 as EC50 (the midpoint of the curve, or concentration at which […] of the maximum effect was observed).

hSTING-HAQ haplotype = target: T2, hSTING-HAQ haplotype (Homo sapiens, UniProt Q86WV6, G230A/H232R/R293Q/R71H); assay: THP-1-Dual reporter assay (endogenous hSTING-HAQ); assay type: cell-based; conditions: THP-1-Dual cells (hSTING-HAQ), 24 hours
T2 construct: host or cells: THP-1-Dual
Method: as §1, §2

hSTING WT = hSTING WT (Homo sapiens, UniProt Q86WV6); assay: Surface plasmon resonance, hSTING WT; assay type: binding; conditions: read-out: hSTING WT SPR (Kd)
hSTING H232 [1] = target: T3, hSTING H232 (Homo sapiens, UniProt Q86WV6); assay: Surface plasmon resonance, hSTING H232; assay type: binding; conditions: read-out: hSTING H232 SPR (Kd)
hSTING AQ = hSTING AQ (Homo sapiens, UniProt Q86WV6, G230A/H232R/R293Q); assay: Surface plasmon resonance, hSTING AQ; assay type: binding; conditions: read-out: hSTING AQ SPR (Kd)
mSTING = target: T4, mSTING (Mus musculus, UniProt Q3TBT3); assay: THP1-Dual KI-mSTING reporter assay; assay type: cell-based; parameters: host or cells: THP1-Dual KI-mSTING (from THP1-Dual KO-STING); conditions: THP1-Dual KI-mSTING cells, 24 hours; read-out: Reporter assay EC50 (nM) THP-1 mSTING
T4 sequence (Q3TBT3 1-378): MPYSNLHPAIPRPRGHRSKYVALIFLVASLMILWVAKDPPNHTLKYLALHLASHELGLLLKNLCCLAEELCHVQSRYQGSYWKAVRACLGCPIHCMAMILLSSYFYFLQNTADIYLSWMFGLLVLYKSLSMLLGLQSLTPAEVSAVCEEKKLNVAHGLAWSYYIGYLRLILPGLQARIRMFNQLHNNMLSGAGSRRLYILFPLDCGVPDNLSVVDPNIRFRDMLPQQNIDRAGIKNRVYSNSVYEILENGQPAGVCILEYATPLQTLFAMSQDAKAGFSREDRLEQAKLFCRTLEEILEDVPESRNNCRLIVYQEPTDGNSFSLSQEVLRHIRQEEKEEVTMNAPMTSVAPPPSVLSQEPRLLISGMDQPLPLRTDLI
Method: as §1
THP-1-Dual™, THP1-Dual™ KI-hSTING-R232, THP1-Dual™ KI-hSTING-H232 and THP1-Dual™ KI-mSTING reporter cells were purchased from Invivogen and maintained in manufacture recommended culture medium with required supplemental antibiotics. On the day of assay, the cells were harvested with Accutase and counted by the Vi-CELL Cell Viability Analyzers. Cells were resuspended in HEK blue detection medium and a total of 10000 cells were seeded in each well of a 384-well flat bottom plate. Serial dilutions of STING agonists free drugs (1:3 serial dilution starting from 5 uM) was added into treatment wells. After incubation at 37° C. in a CO2 incubator for 24 hours, 20 μl of cell culture medium per well was transferred into a 384-well white (opaque) plate. 50 μl of QUANTI-Luc™ assay solution was then added to each well and the plate was immediately transferred to an ENVISION® plate reader to measure luminescence (Perkin-Elmer). Relative luminescence readings were converted to fold change of signal using untreated cells as controls. Data was fitted with non-linear regression analysis, using log (agonist) vs. response, variable slope, 4-parameter fit equation using GraphPad Prism. Data was expressed as fold change in signal vs. dose of STING agonist in nM with error bars indicating the Standard Deviation (SD) of the quadruplicates. There result was reported in Table 2 as EC50 (the midpoint of the curve, or concentration at which […] of the maximum effect was observed).

hSTING H232 [2] = target: T3, hSTING H232; assay: THP1-Dual KI-hSTING-H232 reporter assay (IRF pathway, secreted Lucia luciferase); assay type: cell-based; parameters: host or cells: THP1-Dual KI-hSTING-H232 (from THP1-Dual KO-STING); conditions: THP1-Dual KI-hSTING-H232 cells, 24 hours; read-out: Reporter assay EC50 (nM) THP-1-H232
Method: as §1, §2

T1 sequence (Q86WV6 whole entry H232R): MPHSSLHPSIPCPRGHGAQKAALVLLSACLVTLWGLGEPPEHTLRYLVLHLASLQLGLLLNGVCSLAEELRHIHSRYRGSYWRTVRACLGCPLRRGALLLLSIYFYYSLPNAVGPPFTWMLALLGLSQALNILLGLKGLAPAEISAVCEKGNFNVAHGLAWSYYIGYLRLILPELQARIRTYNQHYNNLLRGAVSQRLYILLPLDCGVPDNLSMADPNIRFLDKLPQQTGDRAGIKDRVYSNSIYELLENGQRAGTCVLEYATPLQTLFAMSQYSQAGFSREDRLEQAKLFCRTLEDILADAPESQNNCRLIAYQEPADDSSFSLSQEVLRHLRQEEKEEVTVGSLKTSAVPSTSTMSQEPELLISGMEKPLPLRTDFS
Chain of hSTING WT (Q86WV6 whole entry H232R): as above
Chain of hSTING AQ (Q86WV6 whole entry G230A/H232R/R293Q): as the sequence (Q86WV6 whole entry H232R) above, with G230A, R293Q counted along it
T3 sequence (Q86WV6 whole entry): as the sequence (Q86WV6 whole entry H232R) above, with R232H counted along it
T2 sequence (Q86WV6 whole entry R71H/G230A/H232R/R293Q): as the sequence (Q86WV6 whole entry H232R) above, with R71H, G230A, R293Q counted along it

| EC50 (hSTING-R232) [nM] | EC50 (hSTING-HAQ haplotype) [nM] | Kd (hSTING WT) [nM] | Kd (hSTING H232 [1]) [nM] | Kd (hSTING AQ) [nM] | EC50 (mSTING) [nM] | EC50 (hSTING H232 [2]) [nM] | SMILES |
| --- | --- | --- | --- | --- | --- | --- | --- |
| > 150 | > 150 | ≥ 20 | ≥ 20 | ≥ 20 | > 150 | > 150 | CCn1nc(C)cc1C(=O)Nc1nc2cc(C(N)=O)cc(OC)c2n1C/C=C/Cn1c(N2CCn3nc(C)cc3C2=O)nc2cc(C(N)=O)cc(OCCCN3CC4(CNCCO4)C3)c21 [Compound 5, 1-[(E)-4-[5-Carbamoyl-2-(2-methyl-4-oxo-6,7-dihydropyrazolo[1,5-a]pyrazin-5-yl)-7-[3-(5-oxa-2,8-diazaspiro[3.5]nonan-2-yl)propoxy]benzimidazol-1-yl]but-2-enyl]-2-[(2-ethyl-5-methyl-pyrazole-3-carbonyl)amino]-7-methoxy-benzimidazole-5-carboxamide] |
| > 150 | > 150 | ≥ 20 | ≥ 20 | ≥ 20 | > 150 | > 150 | CCn1nc(C)cc1C(=O)Nc1nc2cc(C(N)=O)cc(OC)c2n1C/C=C/Cn1c(NC(=O)Cc2cc(C)nn2C)nc2cc(C(N)=O)cc(OCCCN3CC4(CNCCO4)C3)c21 [Compound 8] |
| ≤ 50 | ≤ 50 | ≤ 20 | ≤ 20 | ≤ 20 | ≤ 50 | ≤ 50 | CCc1nc(C)oc1C(=O)Nc1nc2cc(C(N)=O)cc(OCCCN3CC4(C3)CN(C(=O)[C@@H](N)CC(C)C)CCO4)c2n1C/C=C/Cn1c(NC(=O)c2cc(C)nn2CC)nc2cc(C(N)=O)cc(OC)c21 [Compound 17] |
| 50 to 150 | > 150 | ≤ 20 | ≤ 20 | ≤ 20 | > 150 | 50 to 150 | CCn1nc(C)cc1C(=O)Nc1nc2cc(C(N)=O)cnc2n1C/C=C/Cn1c(NC(=O)c2cc(C)nn2CC)nc2cc(C(N)=O)cc(OCCCN3CCC(c4nnc5n4CCNC5)CC3)c21 [Compound 21] |
| > 150 | > 150 | ≤ 20 | ≤ 20 | ≤ 20 | > 150 | > 150 | CCn1nc(C)cc1C(=O)Nc1nc2cc(C(N)=O)cnc2n1CCCCn1c(NC(=O)c2cc(C)nn2CC)nc2cc(C(N)=O)cc(OCCCN3CCC(c4nnc5n4CCNC5)CC3)c21 [Compound 22] |
| > 150 | > 150 | – | – | – | > 150 | > 150 | COc1cc(C(N)=O)cc2nc(NC(=O)c3oc(C)nc3C)n(C/C=C/Cn3c(NC(=O)c4oc(C)nc4C)nc4cc(C(N)=O)cc(OCCCN5CCC(c6nnc7n6CCNC7)CC5)c43)c12 [Compound 43, (E)-N-(5-carbamoyl-1-(4-(5-carbamoyl-2-(2,4-dimethyloxazole-5-carboxamido)-7-(3-(4-(5,6,7,8-tetrahydro-[1,2,4]triazolo[4,3-a]pyrazin-3-yl)piperidin-1-yl)propoxy)-1H-benzo[d]imidazol-1-yl)but-2-en-1-yl)-7-methoxy-1H-benzo[d]imidazol-2-yl)-2,4-dimethyloxazole-5-carboxamide] |
| ≤ 50 | ≤ 50 | – | – | – | ≤ 50 | ≤ 50 | CCc1nc(C)sc1C(=O)Nc1nc2cc(C(N)=O)cc(OC)c2n1C/C=C/Cn1c(NC(=O)c2sc(C)nc2CC)nc2cc(C(N)=O)cc(OCCCN3CCC(c4nnc5n4CCNC5)CC3)c21 [Compound 44] |
| > 150 | > 150 | – | – | – | > 150 | > 150 | CCn1nc(C)cc1C(=O)Nc1nc2cc(C(N)=O)cc(OC)c2n1C/C=C/Cn1c(NC(=O)c2cn(C)nc2C2CNC2)nc2cc(C(N)=O)cc(OCCCN3CC4(CCCCO4)C3)c21 [Compound 62] |
| > 150 | > 150 | – | – | – | > 150 | > 150 | CCn1nc(C)cc1C(=O)Nc1nc2cc(C(N)=O)cc(OC)c2n1C/C=C/Cn1c(NC(=O)c2cn(C)nc2CN)nc2cc(C(N)=O)cc(OCCCN3CC4(CCCCO4)C3)c21 [Compound 63, (E)-7-(3-(5-oxa-2-azaspiro[3.5]nonan-2-yl)propoxy)-2-(3-(aminomethyl)-1-methyl-1H-pyrazole-4-carboxamido)-1-(4-(5-carbamoyl-2-(1-ethyl-3-methyl-1H-pyrazole-5-carboxamido)-7-methoxy-1H-benzo[d]imidazol-1-yl)but-2-en-1-yl)-1H-benzo[d]imidazole-5-carboxamide] |
| 50 to 150 | > 150 | ≤ 20 | ≤ 20 | ≤ 20 | > 150 | 50 to 150 | CCn1nc(C)cc1C(=O)Nc1nc2cc(C(N)=O)ccc2n1C/C=C/Cn1c(NC(=O)c2cc(C)nn2CC)nc2cc(C(N)=O)cc(OCCCN3CC4(C3)CN(C(=O)[C@H](CC(C)C)NC(=O)CCCCCO/N=C(\C)c3ccc(C[C@H](N)C(=O)O)cc3)CCO4)c21 [LP-2-3] |
| ≤ 50 | ≤ 50 | ≤ 20 | ≤ 20 | ≤ 20 | ≤ 50 | ≤ 50 | CCn1nc(C)cc1C(=O)Nc1nc2cc(C(N)=O)cc(OC)c2n1C/C=C/Cn1c(NC(=O)c2cc(C)nn2CC)nc2cc(C(N)=O)cc(OCCCN3CC4(C3)CN(C(=O)CCCCCON)CCO4)c21 [LP-6-1] |
| ≤ 50 | > 150 | ≤ 20 | ≤ 20 | ≤ 20 | ≤ 50 | ≤ 50 | CCc1nc(C)oc1C(=O)Nc1nc2cc(C(N)=O)cnc2n1C/C=C/Cn1c(NC(=O)c2oc(C)nc2CC)nc2cc(C(N)=O)cc(OCCCO)c21 [Reference Compd B, reference compound] |
